Measured values published in patent US20110160180A1, “Cannabinoid Receptor Ligands” (ASTRAZENECA AB, priority 2008, published 2011).
“And” between values parts separate entries of the source, which are not always exact repeats. Equal entries are not always repeated.

target: Human CB1 receptor (hCB1) (Homo sapiens, UniProt P21554); test: hCB1 GTPγS binding; format: biochemical; details: hCB1 membranes, GTPg35S binding; maximal stimulated binding determined with 10 μM Win 55,212-2
Protocol: hCB1 and hCB2GTPγS Binding
Human CB1 receptor from Receptor Biology (hCB1) or human CB2 receptor membranes (BioSignal) are thawed at 37° C., passed 3 times through a 25-gauge blunt-end needle and diluted in the GTPγS binding buffer (50 mM Hepes, 20 mM NaOH, 100 mM NaCl, 1 mM EDTA, 5 mM MgCl2, pH 7.4, 0.1% BSA). […] The basal and maximal stimulated binding is determined in absence and presence of 1 μM (hCB2) or 10 μM (hCB1) Win 55,212-2 respectively. The membranes are pre-incubated for 5 minutes with 56.25 μM (hCB2) or 112.5 μM (hCB1) GDP prior to distribution in plates (15 μM (hCB2) or 30 μM (hCB1) GDP final). The plates are vortexed and incubated for 60 minutes at room temperature, filtered on Unifilters GF/B (presoaked in water) with the Tomtec or Packard harvester using 3 ml of wash buffer (50 mM Tris, 5 mM MgCl2, 50 mM NaCl, pH 7.0). The filters are dried for 1 hour at 55° C. The radioactivity (cpm) is counted in a TopCount (Packard) after adding 65 μl/well of MS-20 scintillation liquid. Antagonist reversal studies are done in the same way except that (a) an agonist dose-response curve is done in the presence of a constant concentration of antagonist, or (b) an antagonist dose-response curve is done in the presence of a constant concentration of agonist.

Sequence of Human CB1 receptor (hCB1) (P21554 whole entry): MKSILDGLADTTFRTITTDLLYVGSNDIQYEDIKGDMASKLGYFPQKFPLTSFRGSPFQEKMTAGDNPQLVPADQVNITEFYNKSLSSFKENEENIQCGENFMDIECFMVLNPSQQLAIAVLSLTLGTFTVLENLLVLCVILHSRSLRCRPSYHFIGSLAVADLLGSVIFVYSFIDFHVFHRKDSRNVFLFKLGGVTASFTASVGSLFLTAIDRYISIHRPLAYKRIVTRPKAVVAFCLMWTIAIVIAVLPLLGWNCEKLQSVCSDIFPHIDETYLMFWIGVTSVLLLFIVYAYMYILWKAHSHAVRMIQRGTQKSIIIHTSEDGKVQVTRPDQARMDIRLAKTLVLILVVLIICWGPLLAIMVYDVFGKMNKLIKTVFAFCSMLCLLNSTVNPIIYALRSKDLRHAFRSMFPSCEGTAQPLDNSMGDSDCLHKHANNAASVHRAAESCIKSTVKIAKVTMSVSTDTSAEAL

SMILES | hCB1 EMax
Cn1c2c(c3cc(C(=O)N4CC[C@H](C(=O)NCCF)C4)ccc31)CC(C1CCOCC1)CC2 (stereo partly drawn) [(3S)-N-(2-fluoroethyl)-1-[9-methyl-6-(oxan-4-yl)5,6,7,8-tetrahydrocarbazole-3-carbonyl]pyrrolidine-3-carboxamide] | 113%
Cn1c2c(c3cc(C(=O)N4CC[C@H](C(=O)NC5CC5)C4)ccc31)CC(C1CCOCC1)CC2 (stereo partly drawn) [(3S)-N-cyclopropyl-1-[9-methyl-6-(oxan-4-yl)5,6,7,8-tetrahydrocarbazole-3-carbonyl]pyrrolidine-3-carboxamide] | 127%
CNC(=O)CCCN(C)C(=O)c1ccc2c(c1)c1c(n2C)CCC(C2CCOCC2)C1 (centres unmarked) [N,9-dimethyl-N-[3-(methylcarbamoyl)propyl]-6-(oxan-4-yl)-5,6,7,8-tetrahydrocarbazole-3-carboxamide] | 121%
CN(CC(=O)NC1CC1)C(=O)c1ccc2c(c1)c1c(n2C)CCC(C2CCOCC2)C1 (centres unmarked) [N-(cyclopropylcarbamoylmethyl)-N,9-dimethyl-6-(oxan-4-yl)-5,6,7,8-tetrahydrocarbazole-3-carboxamide] | 107%
CCN(CC(=O)NC1CC1)C(=O)c1ccc2c(c1)c1c(n2C)CCC(C2CCOCC2)C1 (centres unmarked) [N-(cyclopropylcarbamoylmethyl)-N-ethyl-9-methyl-6-(oxan-4-yl)-5,6,7,8-tetrahydrocarbazole-3-carboxamide] | 118% and 106%
CN(CCCC(=O)NCCF)C(=O)c1ccc2c(c1)c1c(n2C)CCC(C2CCOCC2)C1 (centres unmarked) [N-[3-(2-fluoroethylcarbamoyl)propyl]-N,9-dimethyl-6-(oxan-4-yl)-5,6,7,8-tetrahydrocarbazole-3-carboxamide] | 131% and 112%
CCN(CC(=O)NCCO)C(=O)c1ccc2c(c1)c1c(n2S(=O)(=O)CC)CCC(C2CCOCC2)C1 (centres unmarked) [N-ethyl-9-ethylsulfonyl-N-(2-hydroxyethylcarbamoylmethyl)-6-(oxan-4-yl)-5,6,7,8-tetrahydrocarbazole-3-carboxamide] | 115%
CCN(CC(=O)NCCF)C(=O)c1ccc2c(c1)c1c(n2C)CCC(C2CCOCC2)C1 (centres unmarked) [N-ethyl-N-(2-fluoroethylcarbamoylmethyl)-9-methyl-6-(oxan-4-yl)-5,6,7,8-tetrahydrocarbazole-3-carboxamide] | 119% and 111%
